From US4288609A, “Quaternary ammonium derivatives of adamantane with antimicrobic activity” (priority 1976, dated 1981)

Legend:
[1] = tested on: Trych. Mentagr. 1st.Pastuer; experiment: MIC mildews, Trichophyton mentagrophytes (Table 2); assay type: cell-based; details: Sabourand broth
Description: (§1) The method for evaluating the activity in vitro against bacteria, fungi and protozoa consists in introducing calculated quantities of the substance, the activity of which it is desired to test, into culture media already inoculated with a predetermined number of test germs.
(§2) After 24 or 48 hours of incubation at 30° or 37° C., according to the micro-organism being tested, it is possible to evaluate the growth of the same in the culture broth; in this manner the minimum concentration (M.I.C.) which inhibits the growth of the micro-organisms in vitro is determined.
(§3) Inoculation with Trichophyton mentagrophytes and Microsporum canis was effected in a ratio of 1% of the volume of medium used.
(§4) For the fungi Sabourand broth was used as a culture medium, whilst for the protozoa Kupferberg Trichomonas broth with 5% of horse serum was used.

Candida Albic. SKF 2270 = experiment: MIC yeasts, Candida albicans (Table 2); assay type: cell-based; details: Sabourand broth
Description: as §1, §2
(§5) Inoculation with Candida albicans or Candida pseudotropicalis was made by diluting cultures grown for 24 h at 30° C. (cellular density inoculated 10^3 /ml).
as §4

Klens. Pneum. ISM = experiment: M.I.C. in vitro, gram- Klens. Pneum. (Table 1); assay type: cell-based
Description: as §1, §2
(§6) In table 1 there are recorded the M.I.C. values in γ/ml of the products subject of the present invention, against certain gram+ and gram- bacterial strains, some of which are pathogenic towards human beings.

Proteus Vulc. ATCC 881 = experiment: M.I.C. in vitro, gram- Proteus Vulc. (Table 1); assay type: cell-based
Description: as §1, §2, §6

Pseudom.Aer. ATCC 1014 = experiment: M.I.C. in vitro, gram- Pseudom. Aer. (Table 1); assay type: cell-based, Pseudomonas Aeruginosa
Description: as §1, §2, §6

mice = experiment: Acute oral toxicity in mice (Table 4); details: oral, mice, 14 days
Description: The substances were administered orally to groups of 10 female mice CF1 of average weight of about 20 grams, in aqueous solution and in such way that the total volume administered would be in each case 1 ml/100 g of weight.

Diplococcus Pneum. ISM = experiment: M.I.C. in vitro, gram+ Diplococcus Pneum. (Table 1); assay type: cell-based
Description: as §1, §2, §6

Trich. Foetus ISM 66/23 = experiment: MIC protozoa, Trichomonas foetus (Table 2); assay type: cell-based; details: +10% serum (head); Kupferberg Trichomonas broth with 5% of horse serum
Description: as §1, §2
(§7) Inoculation with Trichomonas vaginalis and Trichomonas foetus, obtained from cultures transplanted every other day to make them lively, was effected in a ratio of 3.5% of the volume of medium used.
as §4

Esch. Coli. SKF 12140 = experiment: M.I.C. in vitro, gram- Esch. Coli (Table 1); assay type: cell-based, Escherichia Coli
Description: as §1, §2, §6

[2] = tested on: Streptococ. Henclyt. 0203; experiment: M.I.C. in vitro, gram+ Streptococ. Henclyt. (Table 1); assay type: cell-based
Description: as §1, §2, §6

[3] = tested on: Trich. Vaginalis ISM 66/22; experiment: MIC protozoa, Trichomonas vaginalis (Table 2); assay type: cell-based; details: +10% serum (head); Kupferberg Trichomonas broth with 5% of horse serum
Description: as §1, §2, §7, §4

[4] = tested on: Candida Pseudotrop. ATCC 2512; experiment: MIC yeasts, Candida pseudotropicalis (Table 2); assay type: cell-based; details: Sabourand broth
Description: as §1, §2, §5, §4

[5] = tested on: Nicrosporum Canis ATCC 11621; experiment: MIC mildews, Microsporum canis (Table 2); assay type: cell-based; details: Sabourand broth
Description: as §1, §2, §3, §4

Staph.Aureus Tour = experiment: M.I.C. in vitro, gram+ Staph. Aureus (Table 1); assay type: cell-based, Staphylococcus Aureus
Description: as §1, §2, §6

SMILES	MIC ([1]; +10% serum)	MIC ([1]; without serum)	MIC (Candida Albic. SKF 2270; +10% serum)	MIC (Candida Albic. SKF 2270; without serum)	M.I.C. (Klens. Pneum. ISM; +10% serum)	M.I.C. (Klens. Pneum. ISM; without serum)	M.I.C. (Proteus Vulc. ATCC 881; +10% serum)	M.I.C. (Proteus Vulc. ATCC 881; without serum)	M.I.C. (Pseudom.Aer. ATCC 1014; +10% serum)	M.I.C. (Pseudom.Aer. ATCC 1014; without serum)	M.I.C. (Diplococcus Pneum. ISM; +10% serum)	M.I.C. (Diplococcus Pneum. ISM; without serum)	MIC (Trich. Foetus ISM 66/23)	M.I.C. (Esch. Coli. SKF 12140; +10% serum)	M.I.C. (Esch. Coli. SKF 12140; without serum)	M.I.C. ([2]; +10% serum)	M.I.C. ([2]; without serum)	MIC [3]	MIC ([4]; +10% serum)	MIC ([4]; without serum)	also measured
CCCCCCCCCC[N+](CC)(CC)CCNC(=O)C12CC3CC(CC(C3)C1)C2 [Example 10, n-Decyl-diethyl-(1-adamantane-carbonylamido)-ethyl-ammonium chloride]	50 µg/mL	0.5 µg/mL	50 µg/mL	0.5 µg/mL	100 µg/mL	10 µg/mL	100 µg/mL	10 µg/mL	> 100 µg/mL	50 µg/mL	10 µg/mL	2 µg/mL	5 µg/mL	100 µg/mL	10 µg/mL	5 µg/mL	0.5 µg/mL	10 µg/mL	50 µg/mL	2 µg/mL	LD50 (mice; 20160 min): 1050 mg/kg; MIC ([5]; +10% serum): 50 µg/mL; MIC ([5]; without serum): 0.5 µg/mL; M.I.C. (Staph.Aureus Tour; +10% serum): 10 µg/mL; M.I.C. (Staph.Aureus Tour; without serum): 0.2 µg/mL
CCCCCCCCCC[N+](C)(C)CCOC(=O)C12CC3CC(CC(C3)C1)C2 (single isomer, unassigned) [Example 2, n-Decyl-dimethyl-(1-adamantane-carboxy)-ethyl-ammonium chloride]	20 µg/mL	0.5 µg/mL	50 µg/mL	5 µg/mL	100 µg/mL	20 µg/mL	100 µg/mL	20 µg/mL	100 µg/mL	50 µg/mL	10 µg/mL	2 µg/mL	10 µg/mL	100 µg/mL	10 µg/mL	1 µg/mL	0.2 µg/mL	20 µg/mL	50 µg/mL	0.5 µg/mL	LD50 (mice): 1020 mg/kg; MIC ([5]; +10% serum): 20 µg/mL; MIC ([5]; without serum): 0.5 µg/mL; M.I.C. (Staph.Aureus Tour; +10% serum): 5 µg/mL; M.I.C. (Staph.Aureus Tour; without serum): 0.2 µg/mL
